Experimental data: patent US7659400B2, “Radiolabelled benzamide analogues, their synthesis and use in diagnostic imaging” (Washington University, priority 2003, dated 2010)
Positions count from the first letter of the chain named. “And” between values parts separate entries of the source, which are not always exact repeats. Equal entries are not always repeated.

Assays:
[1] = biological target: σ1 receptors (Cavia porcellus, UniProt Q60492)
Description: In these assays, the novel sigma ligands were dissolved in N,N-dimethylformamide (DMF), DMSO or ethanol, and then diluted in 50 mM Tris-HCl buffer containing 150 mM NaCl and 100 mM EDTA at pH 7.4 prior to performing the σ1 and σ2 receptor binding assays. […] The samples were harvested and filtered rapidly through a 96-well fiber glass filter plate (millipore, Billerica, Mass.) that had been presoaked with 100 μL of 50 mM Tris-HCl buffer at pH 8.0 for 1 h.
The Ki values were determine from Scatchard plots.

[2] = biological target: T1, σ2 receptors (Rattus norvegicus, UniProt Q5U3Y7); experiment: σ2 receptor binding assay, [^3H]DTG in the presence of (+)-pentazocine, rat liver membrane homogenates
T1 construct: conducted using rat liver membrane homogenates; from tissue; host or cells: rat liver membrane homogenates
T1 sequence (Q5U3Y7 1-176): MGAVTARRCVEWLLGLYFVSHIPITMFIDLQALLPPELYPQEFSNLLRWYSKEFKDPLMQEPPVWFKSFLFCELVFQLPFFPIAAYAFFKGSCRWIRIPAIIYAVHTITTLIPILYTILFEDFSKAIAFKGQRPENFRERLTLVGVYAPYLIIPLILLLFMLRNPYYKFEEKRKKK
Description: The incubation time was 120 min at room temperature. […] All other procedures were identical to those described for the σ1 receptor binding assay above.

[3] = biological target: T2, σ2 receptors (Mus musculus, UniProt Q8VD00); experiment: Blocking study: co-injection of 1 mg/kg YUN-143 in EMT-6 tumor-bearing mice; format: in vivo; conditions: 1 mg/kg YUN-143, 1 h post-injection
T2 construct: from tissue; host or cells: EMT-6 tumours in female Balb/c mice, in vivo
T2 sequence (Q8VD00 1-176): T1 sequence (Q5U3Y7 1-176) with V4L, T5A, M26L, L33V, F71L, V105A, I118L, I127V, N136S, F169Y
Description: These blocking studies in tumor-bearing mice were conducted by co-injecting 1 mg/kg of cold N-(4-fluorobenzyl) piperidinyl-4-(3-bromophenyl)acetamide (YUN-143) with [^18F]3c or [^18F]3f.

[4] = tested on: EMT-6 tumors; experiment: Biodistribution of 18F-labeled ligands in mice bearing EMT-6 tumors; format: in vivo, female Balb/c mice; conditions: for tumor:fat ratio: 2 h after i.v. injection; for clearance from the blood (in words): mouse, in vivo
Description: This example illustrates in vivo evaluation of compounds of the present teachings. All animal experiments were conducted in compliance with the Guidelines for the Care and Use of Research Animals established by Washington University's Animal Studies Committee. EMT-6 mouse mammary adenocarcinoma cells (5×10^5 cells in 100 uL of phosphate-buffered saline) were implanted subcutaneously in the scapular region of female Balb/c mice (˜2-month old and 17-22 g; Charles River Laboratories). […] Groups of at least 4 mice were used for each time point. […] After counting, the percentage of the injected dose per gram of tissue (%ID/g) was calculated. The tumor/organ ratios were calculated by dividing the %ID/g of the tumor by the %ID/g of each organ.

[5] = 60 min (1 h) after i.v. injection
[6] = 120 min (2 h) after i.v. injection

σ1 receptors, sequence (Q60492 whole entry): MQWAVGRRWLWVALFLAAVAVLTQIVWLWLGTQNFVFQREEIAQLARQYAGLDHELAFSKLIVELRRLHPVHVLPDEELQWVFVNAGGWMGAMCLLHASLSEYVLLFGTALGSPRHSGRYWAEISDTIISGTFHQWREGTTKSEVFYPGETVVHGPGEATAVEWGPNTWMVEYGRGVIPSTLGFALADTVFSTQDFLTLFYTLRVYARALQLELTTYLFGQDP

## 5-bromo-N-[4-(6,7-dimethoxy-3,4-dihydro-1H-isoquinolin-2-yl)-butyl]-2-(2-fluoro-ethoxy)-3-methoxy-benzamide [compound 3b]
[1]
  Ki: 15.3 µM
[2]; rat liver membranes, [^3H]DTG, mean ± SEM
  Ki: 0.386 ± 0.093 µM
[2]; ratio of Ki values
  σ1:σ2 Ratio: 40

## COc1cc2c(cc1OC)CN(CCCCNC(=O)c1cc(C)ccc1OCC[18F])CC2 [[^18F]3c]
[3]
  decrease in the tumor:fat ratio on co-injection of YUN-143: ~50%
  decrease in the tumor:muscle ratio on co-injection of YUN-143: ~50%
[4]; 5 min after i.v. injection
  Biodistribution: blood: 2.49 ± 0.49 %ID/g
  Biodistribution: bone: 2.49 ± 0.19 %ID/g
  Biodistribution: brain: 0.76 ± 0.06 %ID/g
  Biodistribution: fat: 1.95 ± 0.33 %ID/g
  Biodistribution: heart: 3.73 ± 0.15 %ID/g
  Biodistribution: kidney: 29.18 ± 1.92 %ID/g
  Biodistribution: liver: 23.33 ± 4.22 %ID/g
  Biodistribution: lung: 10.26 ± 0.71 %ID/g
  Biodistribution: muscle: 1.86 ± 0.08 %ID/g
  Biodistribution: tumor (tumor uptake): 3.67 ± 0.45 %ID/g
[4]; 30 min after i.v. injection
  Biodistribution: blood: 1.16 ± 0.10 %ID/g
  Biodistribution: bone: 0.96 ± 0.15 %ID/g
  Biodistribution: brain: 0.27 ± 0.05 %ID/g
  Biodistribution: fat: 0.59 ± 0.13 %ID/g
  Biodistribution: heart: 1.15 ± 0.06 %ID/g
  Biodistribution: kidney: 6.86 ± 0.45 %ID/g
  Biodistribution: liver: 10.51 ± 0.87 %ID/g
  Biodistribution: lung: 2.36 ± 0.19 %ID/g
  Biodistribution: muscle: 0.70 ± 0.19 %ID/g
  Biodistribution: tumor (tumor uptake): 2.54 ± 0.27 %ID/g
[4]; [5]
  Biodistribution: tumor (tumor uptake): 1.14 ± 0.10 %ID/g
[4]; 60 min after i.v. injection
  Biodistribution: blood: 0.56 ± 0.08 %ID/g
  Biodistribution: bone: 0.55 ± 0.07 %ID/g
  Biodistribution: brain: 0.18 ± 0.03 %ID/g
  Biodistribution: fat: 0.22 ± 0.04 %ID/g
  Biodistribution: heart: 0.55 ± 0.07 %ID/g
  Biodistribution: kidney: 2.51 ± 0.51 %ID/g
  Biodistribution: liver: 4.14 ± 0.55 %ID/g
  Biodistribution: lung: 0.88 ± 0.12 %ID/g
  Biodistribution: muscle: 0.34 ± 0.05 %ID/g
[4]; [6]
  Biodistribution: tumor (tumor uptake): 0.64 %ID/g and 0.64 ± 0.10 %ID/g
[4]; 120 min after i.v. injection
  Biodistribution: blood: 0.35 ± 0.05 %ID/g
  Biodistribution: bone: 0.45 ± 0.11 %ID/g
  Biodistribution: brain: 0.12 ± 0.02 %ID/g
  Biodistribution: fat: 0.08 ± 0.02 %ID/g
  Biodistribution: heart: 0.27 ± 0.04 %ID/g
  Biodistribution: kidney: 0.87 ± 0.13 %ID/g
  Biodistribution: liver: 2.05 ± 0.43 %ID/g
  Biodistribution: lung: 0.43 ± 0.07 %ID/g
  Biodistribution: muscle: 0.24 ± 0.08 %ID/g
[4]
  tumor:fat ratio: ~8
  clearance from the blood (in words): rapid clearance from the blood

## COc1cc2c(cc1OC)CN(CCCCNC(=O)c1cc(Br)ccc1OCC[18F])CC2 [[^18F]3d]
[4]; 5 min after i.v. injection
  Biodistribution: blood: 3.57 ± 0.43 %ID/g
  Biodistribution: bone: 2.90 ± 0.39 %ID/g
  Biodistribution: brain: 1.09 ± 0.11 %ID/g
  Biodistribution: fat: 2.85 ± 0.47 %ID/g
  Biodistribution: heart: 3.74 ± 0.37 %ID/g
  Biodistribution: kidney: 42.94 ± 3.34 %ID/g
  Biodistribution: liver: 32.60 ± 3.96 %ID/g
  Biodistribution: lung: 12.08 ± 1.98 %ID/g
  Biodistribution: muscle: 1.95 ± 0.19 %ID/g
  Biodistribution: tumor (tumor uptake): 3.28 ± 0.41 %ID/g
[4]; 30 min after i.v. injection
  Biodistribution: blood: 2.81 ± 0.32 %ID/g
  Biodistribution: bone: 1.17 ± 0.06 %ID/g
  Biodistribution: brain: 0.40 ± 0.03 %ID/g
  Biodistribution: fat: 0.96 ± 0.13 %ID/g
  Biodistribution: heart: 1.55 ± 0.11 %ID/g
  Biodistribution: kidney: 17.55 ± 2.75 %ID/g
  Biodistribution: liver: 13.12 ± 1.39 %ID/g
  Biodistribution: lung: 3.08 ± 0.23 %ID/g
  Biodistribution: muscle: 0.98 ± 0.18 %ID/g
  Biodistribution: tumor (tumor uptake): 2.59 ± 0.19 %ID/g
[4]; [5]
  Biodistribution: tumor (tumor uptake): 2.09 ± 0.28 %ID/g
[4]; 60 min after i.v. injection
  Biodistribution: blood: 1.69 ± 0.63 %ID/g
  Biodistribution: bone: 1.12 ± 0.16 %ID/g
  Biodistribution: brain: 0.32 ± 0.05 %ID/g
  Biodistribution: fat: 0.38 ± 0.05 %ID/g
  Biodistribution: heart: 1.04 ± 0.21 %ID/g
  Biodistribution: kidney: 6.92 ± 1.61 %ID/g
  Biodistribution: liver: 5.69 ± 0.54 %ID/g
  Biodistribution: lung: 1.60 ± 0.27 %ID/g
  Biodistribution: muscle: 0.58 ± 0.11 %ID/g
[4]; [6]
  Biodistribution: tumor (tumor uptake): 0.96 %ID/g and 0.96 ± 0.24 %ID/g
[4]; 120 min after i.v. injection
  Biodistribution: blood: 0.52 ± 0.10 %ID/g
  Biodistribution: bone: 1.28 ± 0.28 %ID/g
  Biodistribution: brain: 0.20 ± 0.03 %ID/g
  Biodistribution: fat: 0.15 ± 0.06 %ID/g
  Biodistribution: heart: 0.40 ± 0.07 %ID/g
  Biodistribution: kidney: 1.12 ± 0.16 %ID/g
  Biodistribution: liver: 2.30 ± 0.33 %ID/g
  Biodistribution: lung: 0.51 ± 0.08 %ID/g
  Biodistribution: muscle: 0.28 ± 0.10 %ID/g
[4]
  tumor:fat ratio: ~6
  clearance from the blood (in words): cleared much more slowly from the blood than [^18F]3c

## COc1cc2c(cc1OC)CN(CCCCNC(=O)c1cc(I)ccc1OCC[18F])CC2 [[^18F]3e]
[4]; 5 min after i.v. injection
  Biodistribution: blood: 4.60 ± 0.44 %ID/g
  Biodistribution: bone: 2.59 ± 0.28 %ID/g
  Biodistribution: brain: 0.55 ± 0.04 %ID/g
  Biodistribution: fat: 2.32 ± 0.46 %ID/g
  Biodistribution: heart: 3.22 ± 0.27 %ID/g
  Biodistribution: kidney: 36.07 ± 2.28 %ID/g
  Biodistribution: liver: 37.26 ± 4.88 %ID/g
  Biodistribution: lung: 9.71 ± 0.83 %ID/g
  Biodistribution: muscle: 1.52 ± 0.10 %ID/g
  Biodistribution: tumor (tumor uptake): 2.54 ± 0.62 %ID/g
[4]; 30 min after i.v. injection
  Biodistribution: blood: 4.30 ± 0.59 %ID/g
  Biodistribution: bone: 1.31 ± 0.14 %ID/g
  Biodistribution: brain: 0.44 ± 0.04 %ID/g
  Biodistribution: fat: 1.04 ± 0.06 %ID/g
  Biodistribution: heart: 2.37 ± 0.29 %ID/g
  Biodistribution: kidney: 17.43 ± 1.95 %ID/g
  Biodistribution: liver: 17.35 ± 2.72 %ID/g
  Biodistribution: lung: 4.07 ± 0.46 %ID/g
  Biodistribution: muscle: 1.12 ± 0.05 %ID/g
  Biodistribution: tumor (tumor uptake): 2.81 ± 0.62 %ID/g
[4]; [5]
  Biodistribution: tumor (tumor uptake): 2.72 ± 0.13 %ID/g
[4]; 60 min after i.v. injection
  Biodistribution: blood: 3.39 ± 0.29 %ID/g
  Biodistribution: bone: 0.99 ± 0.07 %ID/g
  Biodistribution: brain: 0.36 ± 0.02 %ID/g
  Biodistribution: fat: 0.62 ± 0.10 %ID/g
  Biodistribution: heart: 1.61 ± 0.11 %ID/g
  Biodistribution: kidney: 9.36 ± 0.90 %ID/g
  Biodistribution: liver: 7.31 ± 0.98 %ID/g
  Biodistribution: lung: 2.34 ± 0.12 %ID/g
  Biodistribution: muscle: 0.83 ± 0.04 %ID/g
[4]; [6]
  Biodistribution: tumor (tumor uptake): 1.92 %ID/g and 1.92 ± 0.10 %ID/g
[4]; 120 min after i.v. injection
  Biodistribution: blood: 1.92 ± 0.59 %ID/g
  Biodistribution: bone: 1.67 ± 0.27 %ID/g
  Biodistribution: brain: 0.37 ± 0.06 %ID/g
  Biodistribution: fat: 0.44 ± 0.08 %ID/g
  Biodistribution: heart: 1.00 ± 0.23 %ID/g
  Biodistribution: kidney: 3.92 ± 0.98 %ID/g
  Biodistribution: liver: 4.25 ± 1.56 %ID/g
  Biodistribution: lung: 1.36 ± 0.24 %ID/g
  Biodistribution: muscle: 0.60 ± 0.11 %ID/g
[4]
  clearance from the blood (in words): cleared much more slowly from the blood than [^18F]3c
